Experimental findings from US4225619A, “Substituted fluoracylresorcinols” (Boehringer Ingelheim GmBH, priority 1976, dated 1980) are described below.

Common to all, as to format: cell-based
For test [1], the system named is Staphylococcus aureus SG 511. As to the kind of experiment: Agar diffusion test (hole-test). The following applies: SG511, 18-20 hours at 37° C., read-out: MIC, A.D.T., Staphylococcus aureus SG 511. In general terms: Agar diffusion results depend on both activity and mobility in agar.
The test system of another test is Aspergillus niger. In words: Serial dilution test. The following applies: for MIC: Aspergillus niger, 168 h, 27° C. for 7 days, read-out: MIC, S.D.T., Aspergillus niger. The procedure: (§1) The inhibitory effect on bacteria and fungi was examined by the serial dilution test and the agar diffusion test (hole-test). As bacteria were used: Staphylococcus aureus SG 511, Streptococcus Aronson, Streptococcus pyogenes At CC 86 68; as fungi: Candida albicans AT CC 10231, Trichophyton mentagrophytes AT CC 9129 and Aspergillus niger.
(§2) 3. Sabouraud broth: for C. alb., Trich. mnt., A. niger
(§3) The age of the primary cultures is 24 hours for bacteria and 14 days for fungi. The standardization of the suspension of microorganisms is effected using a photometer according to Eppendorf (test tube .phi.14 mm, filter 546 nm) and a suspension for comparison consisting of barium sulfate, this suspension being created by adition of 3.0 ml of 1% barium chloride solution to 97 ml of 1% sulfuric acid. After the standardization the bacteria were further diluted to a concentration of 1:1000 by means of sodium chloride solution, the fungi were used in an undiluted state.
(§4) 40 mgm of the substance were put into a 10 ml measuring flask and filled up to the mark with the solvent (corresponds to a dilution of 1:250=4000 μg/ml). The further dilution series was standardized with distilled water or the respective solvent and the following substance concentrations were prepared: 1000; 250; 62.5 μg/ml.
(§5) The tubes were filled with 4.9 ml of the corresponding liquid nutrient medium. Then 0.1 ml of the substance dilution prepared above was added to each tube, so that the mentioned final concentrations were present. Finally each tube was inoculated with 0.1 ml of the standardized suspension of microorganisms. Control tests merely using the solvent are to be carried out simultaneously.
(§6) Bacteria were incubated at 37° C. for 18-20 hours and fungi at 27° C. for 7 days.
(§7) The measurement is carried out macroscopically defining the minimal inhibitory concentration (the lowest still microbiostatically effective concentration).

For test [2], the system named is Candida albicans AT CC 10231. As to the kind of experiment: Serial dilution test. The conditions noted are these: for MIC: Candida albicans, ATCC10231, 168 h, 27° C. for 7 days, read-out: MIC, S.D.T., Candida albicans. As for the experimental part: as §1, §2, §3, §4, §5, §6, §7
For test [3], the system named is Trichophyton mentagrophytes AT CC 9129. In words: Serial dilution test. The following applies: ATCC9129, 168 h, 27° C. for 7 days, read-out: MIC, S.D.T., Trichophyton mentagrophytes. The procedure:
as §1, §2, §3, §4, §5, §6, §7

[4] abbreviates: reduced growth at this concentration.

≈ marks a conversion by molar mass, not a printed value. Some results are limits rather than exact numbers.

The term MIC denotes the least concentration at which growth counts as inhibited. For `CCc1cc(C(=O)C(F)(F)F)c(O)cc1O` [B, 5-Ethyl-2,4-dihydroxy-trifluoroacetophenone, reference compound], the MIC in test [1] worked out at 250 µg/mL (≈ 1070 µM); in the test with Aspergillus niger it was 20 µg/mL (≈ 85.4 µM); in test [2], 20 µg/mL (≈ 85.4 µM); in test [3], 5 µg/mL (≈ 21.4 µM).
As to `CCc1c(O)ccc(C(=O)C(F)(F)F)c1O` [C, 3-Ethyl-2,4-dihydroxy-trifluoroacetophenone, reference compound], the MIC in test [1] was 62.5 µg/mL (≈ 267 µM); in the test on Aspergillus niger, 5 µg/mL (≈ 21.4 µM); in test [2], 20 µg/mL (≈ 85.4 µM); in test [3], 1.25 µg/mL (≈ 5.34 µM).
For `CC(C)Cc1c(O)ccc(C(=O)C(F)(F)F)c1O` [F, 2,4-Dihydroxy-3-iso-butyl-trifluoroacetophenone], in that order: 62.5 µg/mL (≈ 238 µM), 20 µg/mL (≈ 76.3 µM), 20 µg/mL (≈ 76.3 µM) and 1.25 µg/mL (≈ 4.77 µM).
In the case of `CC1CCC(c2c(O)ccc(C(=O)C(F)(F)F)c2O)CC1` (stereo not shown) [H, 2,4-Dihydroxy-3-(4'-methyl)-cyclohexyl-trifluoro-acetophenone], the MIC in test [1] is not above 15.6 µg/mL; in test [3], 1.25 µg/mL (≈ 4.14 µM). Further, the “Concentration with reduced growth (value in brackets), S.D.T., Aspergillus niger” value with Aspergillus niger (setting [4]) worked out at 80 µg/mL. In addition, the “Concentration with reduced growth (value in brackets), S.D.T., Candida albicans” value in test [2] (setting [4]) worked out at 80 µg/mL.
For the compound `CC(C)c1c(O)ccc(C(=O)C(F)(F)F)c1O` [P, 2,4-Dihydroxy-3-isopropyl-trifluoroacetophenone], the MIC in test [1] is 62.5 µg/mL (≈ 252 µM).
Take `O=C(c1ccc(O)cc1O)C(F)(F)F` [A, 2,4-Dihydroxy-trifluoroacetophenone, reference compound]: the MIC was determined as 1000 µg/mL (≈ 4850 µM) in test [1], 20 µg/mL (≈ 97 µM) in the test on Aspergillus niger, 80 µg/mL (≈ 388 µM) in test [2] and 20 µg/mL (≈ 97 µM) in test [3].
Regarding `COc1ccc(C(=O)C(F)(F)F)c(OC)c1` [D, 2,4-Dimethoxy-trifluoroacetophenone, reference compound], the MIC in test [1] was more than 4000 µg/mL; with Aspergillus niger it was more than 80 µg/mL; in test [2], more than 80 µg/mL; in test [3] it was more than 80 µg/mL.
